In PubChem BioAssay (NCI):
Several values for one entry are separate records, joined by “and”; a condition that tells them apart may be missing. Equal values may be shown once.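 Interpolation was linear, between the two tested concentrations surrounding the appropriate level; five concentrations were tested over 48 hours in 96-well plates. GI50 = concentration required for 50% inhibition of growth. TGI: total growth inhibition.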

Columns and labels:
Assay in all cases: growth of human tumour cells (NCI), 48 h
RXF 393 renal = system: RXF 393 renal
A498 renal = system: A498 renal
HOP-92 NSCLC = system: HOP-92 NSCLC
HS 578T breast = system: HS 578T breast
K-562 leukemia = system: K-562 leukemia
OVCAR-8 ovarian = system: OVCAR-8 ovarian
UACC-62 melanoma = system: UACC-62 melanoma
SK-MEL-28 melanoma = system: SK-MEL-28 melanoma
SF-295 CNS = system: SF-295 CNS
HCC-2998 colon = system: HCC-2998 colon

Row | SMILES | GI50 (RXF 393 renal) [µM] | TGI (RXF 393 renal) | GI50 (A498 renal) [µM] | TGI (A498 renal) | GI50 (HOP-92 NSCLC) [µM] | TGI (HOP-92 NSCLC) | GI50 (HS 578T breast) [µM] | TGI (HS 578T breast) [µM] | TGI (K-562 leukemia) | TGI (OVCAR-8 ovarian) | TGI (UACC-62 melanoma) | TGI (SK-MEL-28 melanoma) | TGI (SF-295 CNS) | TGI (HCC-2998 colon) | GI50 (K-562 leukemia) [µM] | GI50 (OVCAR-8 ovarian) [µM] | GI50 (UACC-62 melanoma) [µM] | GI50 (SK-MEL-28 melanoma) [µM] | GI50 (SF-295 CNS) [µM] | GI50 (HCC-2998 colon) [µM]
1 | Cc1cc(NCc2cc(Nc3ccnc4cc(Cl)ccc34)ccc2F)nc(N2CCCC2)n1 | 1.45 | 2.99 µM | 1.44 | 3.32 µM | 0.763 | 2.61 µM | 1.61 | 4.6 | – | – | – | – | – | – | – | – | – | – | – | –
2 | CC12CCC(C(=O)OC1=O)C(C)(C)O2 (centres undefined) | – | > 100 µM | – | – | – | > 100 µM | – | > 100 | > 100 µM | > 100 µM | > 100 µM | > 100 µM | > 100 µM | > 100 µM | – | – | – | – | – | –
3 | CN(C)CCNc1nc(-c2ccc3ccccc3c2)nc2nc[nH]c12 | – | 24.2 µM | – | – | – | – | – | 22.8 | > 100 µM | 24.4 µM | 22.9 µM | 28.9 µM | 26.9 µM | 10.6 µM | – | – | – | – | – | –
4 | C/C=C/[P+](c1ccccc1)(c1ccccc1)c1ccccc1 | – | 41.6 µM | – | 41.3 µM | – | 6.81 µM | – | 3.17 | 28.2 µM | 17.3 µM | 19.2 µM | 17.5 µM | 12 µM | 3.82 µM | – | – | – | – | – | –
5 | Cc1c2cc[n+](CCN3CCCCC3)cc2c(C)c2c1[nH]c1ccc(O)cc12 | 3.09 | 23.6 µM and 16 µM | 3.48 | 48 µM and 30.5 µM | 4.34 | 46.6 µM and 42 µM | – | > 100 | 25.3 µM and 14.8 µM | 30.6 µM and 44.7 µM | 36.7 µM and 31.2 µM | 33.7 µM and > 45.9 µM | 18.4 µM and > 100 µM | 53 µM and 37.4 µM | 2.33 | 3.36 | 11.4 | 9.29 | 5.43 | 14.3
6 | Cc1ccc(Oc2ccc(C)cc2[N+](=O)[O-])cc1 | – | 92.7 µM | – | > 100 µM | – | > 100 µM | – | – | > 100 µM | > 100 µM | > 100 µM | > 100 µM | > 100 µM | > 100 µM | – | – | – | – | – | –
7 | O=S(=O)(Sc1ccc(Cl)cc1)c1ccc(Cl)cc1 | – | 30.1 µM | – | 34.5 µM | – | 42.1 µM | – | – | 93.7 µM | 30.2 µM | 31.4 µM | 31.1 µM | 27.2 µM | 40.7 µM | – | – | – | – | – | –
8 | COc1ccc([C@@H]2ON(C)[C@H]3CN(C)C(=O)[C@@H]23)cc1 | – | – | – | – | – | > 100 µM | – | > 100 | > 100 µM | > 100 µM | – | > 100 µM | > 100 µM | > 100 µM | – | – | – | – | – | –
9 | CCCCCCNC(=O)c1cnc(Cl)cn1 | – | – | – | – | – | > 100 µM | – | 44.4 | 40.2 µM | 34.5 µM | 33.4 µM | 74.9 µM | 39.4 µM | – | – | – | – | – | – | –
10 | Cc1sc(Cc2ccccc2)nc1-c1ccc(N)cc1 | – | – | – | > 100 µM | – | 43.4 µM | – | > 100 | > 100 µM | > 100 µM | 37.8 µM | 61.4 µM | > 100 µM | 35.5 µM | – | – | – | – | – | –
11 | COc1ccc(N2C(=O)C3c4[nH]c5c(C)cccc5c4C4CCC(C(C)(C)C)CC4C3C2=O)cc1 (centres undefined) | – | > 10 µM | – | > 10 µM | – | – | – | > 10 | > 10 µM | > 10 µM | > 10 µM | > 10 µM | > 10 µM | 7.61 µM | – | – | – | – | – | –
12 | NC(=O)CCCC(NCc1c2ccccc2nc2ccccc12)C(=O)O (centres undefined) | – | > 100 µM | – | – | – | 85.7 µM | – | – | > 100 µM | > 100 µM | – | > 100 µM | > 100 µM | > 100 µM | – | – | – | – | – | –
13 | Cc1ccccc1N=Nc1ccc(N=Nc2c(O)ccc3ccccc23)c(C)c1 | – | > 100 µM | – | > 100 µM | – | > 100 µM | – | > 100 | > 100 µM | > 100 µM | > 100 µM | > 100 µM | > 100 µM | – | – | – | – | – | – | –
14 | NC(=O)NN=C(CS)CS | – | > 74.4 µM | – | 23.4 µM | – | 38.6 µM | – | – | > 100 µM | 77.3 µM | 72.5 µM | 80.8 µM | 49.5 µM | > 77.5 µM | – | – | – | – | – | –
15 | CN(C)CCCNc1ccc2ncn3c4ccccc4c(=O)c1c23 | – | – | – | – | – | 59.5 µM | – | – | 24.1 µM | 20 µM | 34.7 µM | > 100 µM | 39 µM | – | – | – | – | – | – | –
16 | CCOC(=O)/C(Cl)=C(\C)Nc1nc2c(ccc3ccccc32)s1 | – | – | – | > 100 µM | – | – | – | > 100 | > 100 µM | > 100 µM | > 100 µM | > 100 µM | > 100 µM | 39.2 µM | – | – | – | – | – | –
17 | O=c1ccc2cc(O)c(O)cc2o1 | – | > 100 µM | – | > 100 µM | – | > 100 µM | – | > 100 | > 100 µM | > 100 µM | > 100 µM | > 100 µM | > 100 µM | > 100 µM | – | – | – | – | – | –
18 | CC(=O)C(O)N1C(=O)C=CC1=O (centres undefined) | 13000 | – | – | > 25 µM and 31.3 µM and 39 µM | – | – | 15800 | – | – | – | – | – | – | – | – | – | 7170 | – | – | –
19 | CCCCCCCSc1nc2c(C(=O)OCC)ncn2c2ccccc12 | – | > 100 µM | – | – | – | > 100 µM | – | – | > 100 µM | > 100 µM | > 100 µM | > 100 µM | > 100 µM | > 100 µM | – | – | – | – | – | –
20 | CN(C)c1ccc(/C=N\NC(=O)CSCC(=O)N/N=C/c2ccc(N(C)C)cc2)cc1 | – | 81.5 µM | – | – | – | > 100 µM | – | 82.1 | > 100 µM | > 100 µM | > 100 µM | > 100 µM | > 100 µM | – | – | – | – | – | – | –
21 | COc1ccc(-c2c3c(nc4nc(SCCc5ccccc5)nc(N)c24)CCCC3)cc1OC | – | > 100 µM | – | – | – | – | – | > 100 | > 100 µM | > 100 µM | > 100 µM | > 100 µM | > 100 µM | – | – | – | – | – | – | –
22 | CC1C(O)C2(Oc3cc4c(c5c3[C@@H](CC5O)[C@H]2C)CCC2Cc3nc5c(nc3C[C@@]42C)CC2CCC3C4=C[C@H]6O[C@@]7(O[C@@](C)(CO)C[C@@H]7O)C(C)[C@@]6(O)[C@]4(C)[C@@H](O)CC3[C@]2(C)C5)OC1(C)C (some centres undefined) | – | 0.19 µM | – | 0.208 µM | – | > 3.67 µM | – | – | 0.367 µM | 1.36 µM | 0.231 µM | – | 0.105 µM | > 3.67 µM | – | – | – | – | – | –
23 | N#CC(c1ccccc1)c1nc2ccc(=N)cc-2n(O)c1C(C#N)c1ccccc1 (centres undefined) | – | > 100 µM | – | > 100 µM | – | – | – | – | > 100 µM | > 100 µM | > 100 µM | > 100 µM | > 100 µM | – | – | – | – | – | – | –
24 | Cc1ccc(S(=O)(=O)NCCSCCNS(=O)(=O)c2ccc(C)cc2)cc1 | – | > 100 µM | – | > 100 µM | – | > 100 µM | – | > 100 | > 100 µM | > 100 µM | – | > 100 µM | > 100 µM | > 100 µM | – | – | – | – | – | –
